Experimental data: ChEMBL document CHEMBL3352707, “Antimycobacterial activity of natural products and synthetic agents: pyrrolodiquinolines and vermelhotin as anti-tubercular leads against clinical multidrug resistant isolates of Mycobacterium tuberculosis” (Eur J Med Chem, 2015)
In brackets after ≈: the same amount, converted by molar mass.

Columns and labels:
[1] = system: Mycobacterium tuberculosis; test: Antimycobacterial activity against Mycobacterium tuberculosis H37Ra after 7 days by microplate Alamar blue assay; assay type: functional; conditions: 168 h
[2] = system: Mycobacterium tuberculosis; test: Antimycobacterial activity against Mycobacterium tuberculosis H37Rv after 7 days by microplate Alamar blue assay; assay type: functional; conditions: 168 h
[3] = system: Mycobacterium tuberculosis; test: Antimycobacterial activity against p-Aminosalicylic acid-resistant Mycobacterium tuberculosis H37Rv ATCC 35821 after 7 days by microplate Alamar blue assay; assay type: functional; conditions: H37Rv ATCC 35821, 168 h
MRC5 [4] = test: Cytotoxicity against human MRC5 cells by MTT assay; assay type: cell-based
MRC5 [5] = test: Cytotoxicity against human MRC5 cells at 50 ug/ml by MTT assay; assay type: cell-based

Compound | MIC [1] | further results
COc1ccc2oc(=O)c(C(C)=O)cc2c1 | > 100 µg/mL | 
COc1ccc2cc(C(C)=O)c(=O)oc2c1 | > 100 µg/mL | 
COC(=O)c1cc2ccccc2oc1=O | > 100 µg/mL | 
O=[N+]([O-])c1cccc2ncccc12 | 100 µg/mL (≈ 574 µM) | 
COC(=O)c1cc2c(ccc3ccccc32)oc1=O | 50 µg/mL (≈ 197 µM) | 
CC(=O)c1cc2cccc(O)c2oc1=O | > 100 µg/mL | 
CC(=O)c1cc2cc(Cl)ccc2oc1=O | > 100 µg/mL | 
O=C(c1ccccc1)c1cc2cc(Cl)ccc2oc1=O | > 100 µg/mL | 
O=C(c1ccccc1)c1cc2c(ccc3ccccc32)oc1=O | > 100 µg/mL | 
C/C=C(\C)c1c(Br)c(O)c(C)c2c1Oc1cc(O)c(Br)c(C)c1C(=O)O2 | 50 µg/mL (≈ 103 µM) | 
O=C1CCCC2=C1C(c1c[nH]c3ccccc13)c1c(ccc3ccccc13)O2 (centres undefined) | > 100 µg/mL | 
COCCC(=O)O | > 100 µg/mL | MIC [2]: 100 µg/mL (≈ 961 µM)
COC(=O)CCC[N+](=O)[O-] | 12.5 µg/mL (≈ 85 µM) | MIC [2]: 25 µg/mL (≈ 170 µM)
C/C=C(\C)c1c(Cl)c(OC)c(C)c2c1Oc1c(Cl)c(O)c(Cl)c(C)c1C(=O)O2 | 100 µg/mL (≈ 225 µM) | 
C/C=C(\C)c1c(Cl)c(OC)c(C)c(O)c1Oc1c(Cl)c(O)c(Cl)c(C)c1C(=O)OC | 100 µg/mL (≈ 210 µM) | 
COC(=O)[C@@H]1CC[C@@]23COC(=O)C2=CCC[C@@H]3[C@@]1(C)CC(=O)c1ccoc1 | > 100 µg/mL | 
COc1cc(O)cc2cc3c(c(O)c12)C(=O)C[C@@](C)(O)C3 | 25 µg/mL (≈ 86.7 µM) | 
C[C@@H]1CCN2C[C@@]34C[C@@]5(CC(=O)N(C)C5=O)C(C)(C)[C@H]3C[C@@]12C(=O)N4C | 25 µg/mL (≈ 69.5 µM) | 
CC[C@@H](C)C[C@]1(C)C=C/C(=C2/C(=O)O[C@H](CC(=O)O)C2=O)O1 | 100 µg/mL (≈ 324 µM) | 
CC[C@H](C)[C@@H](O)[C@@H](C)C(=O)O[C@H]1CC(CC(=O)[C@H]2[C@H](C)CCC[C@@H]2O)=C(C)C(=O)[C@@]1(C)O | > 100 µg/mL | 
CC[C@H](C)[C@@H](O)[C@@H](C)C(=O)O[C@@]1(C)C(=O)c2c(cc(O)c3c2CCC[C@H]3C)C(C)(O)C1=O (some centres undefined) | > 100 µg/mL | 
C/C(=C\C=C\[C@H](O)[C@@H](C)O)[C@H](O)[C@H](C)C(=O)O[C@H]1C[C@H](C)C[C@@H]2C=C[C@H](C)[C@](C)(C(=O)CCO)[C@@H]12 | > 100 µg/mL | 

Compound | MIC [1] | further results
C/C(=C\C=C\[C@H](O)[C@@H](C)O)[C@H](O)[C@H](C)C(=O)O[C@H]1C[C@H](C)C[C@@H]2C=C[C@H](C)[C@](C)(C(=O)C(O)CO)[C@@H]12 (some centres undefined) | > 100 µg/mL | 
C/C(=C\C=C\[C@H](O)[C@@H](C)O)[C@H](O)[C@H](C)C(=O)O[C@H]1C[C@H](CO)C[C@@H]2C=C[C@H](C)[C@](C)(C(=O)C(O)CO)[C@@H]12 (some centres undefined) | > 100 µg/mL | 
CC1=CC2=C(Cc3c(O)cc(C)oc3=O)C(=O)[C@](C)(O)[C@@H](O)C2=CO1 | > 100 µg/mL | 
O=C1c2c(O)cc(O)c([C@@H]3C(=O)c4c(O)cc(O)cc4O[C@H]3c3ccc(O)cc3)c2O[C@H](c2ccc(O)cc2)[C@H]1O | > 100 µg/mL | 
O=C1NC(=O)/C(=C2/CCNC(=O)c3[nH]c(Br)cc32)N1 | > 100 µg/mL | 
CN1c2cccc([N+](=O)[O-])c2C2CC1OC1=C2C(=O)CC(C)(C)C1 (centres undefined) | > 100 µg/mL | 
CN1c2ccccc2C2CC1OC1=C2C(=O)CC(C)(C)C1 (centres undefined) | > 100 µg/mL | 
CN1c2ccccc2C2CC1OC1=C2C(=O)CCC1 (centres undefined) | > 100 µg/mL | 
CC(=O)c1cc2ccccc2[nH]c1=O | > 100 µg/mL | 
O=C(c1ccccc1)c1cc2cc([N+](=O)[O-])ccc2oc1=O | 50 µg/mL (≈ 169 µM) | 
CC1(C)CC(=O)C2=C(C1)Oc1ccccc1C2c1c[nH]c2ccccc12 (centres undefined) | 50 µg/mL (≈ 146 µM) | 
CC1(C)CC(=O)C2=C(C1)Oc1c(O)cccc1C2c1c[nH]c2ccccc12 (centres undefined) | 100 µg/mL (≈ 278 µM) | 
COc1ccc2c(c1)OC1=C(C(=O)CC(C)(C)C1)C2c1c[nH]c2ccccc12 (centres undefined) | 100 µg/mL (≈ 268 µM) | 
COc1ccc(Br)c2c1OC1=C(C(=O)CC(C)(C)C1)C2c1c[nH]c2ccccc12 (centres undefined) | > 100 µg/mL | 
CC1(C)CC(=O)C2=C(C1)Oc1c(cc(C(C)(C)C)cc1C(C)(C)C)C2c1c[nH]c2ccccc12 (centres undefined) | > 100 µg/mL | 
CCN(CC)c1ccc2c(c1)OC1=C(C(=O)CC(C)(C)C1)C2c1c[nH]c2ccccc12 (centres undefined) | > 100 µg/mL | 
CC1(C)CC(=O)C2=C(C1)Oc1ccc(Cl)cc1C2c1c(C(=O)O)[nH]c2ccccc12 (centres undefined) | 100 µg/mL (≈ 237 µM) | 
CC1(C)CC(=O)C2=C(C1)Oc1ccc3ccccc3c1C2c1c[nH]c2ccccc12 (centres undefined) | 25 µg/mL (≈ 63.5 µM) | 
O=C1CCCC2=C1C(c1c[nH]c3ccccc13)c1ccccc1O2 (centres undefined) | > 100 µg/mL | 
O=C1CCCC2=C1C(c1c[nH]c3ccccc13)c1ccc(O)cc1O2 (centres undefined) | > 100 µg/mL | 
COc1ccc2c(c1)OC1=C(C(=O)CCC1)C2c1c[nH]c2ccccc12 (centres undefined) | > 100 µg/mL | 
O=C1CCCC2=C1C(c1c[nH]c3ccccc13)c1cc(Cl)ccc1O2 (centres undefined) | 50 µg/mL (≈ 143 µM) | 

Compound | MIC [1] | further results
O=C1CCCC2=C1C(c1c[nH]c3ccccc13)c1cc(Br)ccc1O2 (centres undefined) | 50 µg/mL (≈ 127 µM) | 
COc1ccc2c(c1)C(c1c[nH]c3ccccc13)C1=C(CCCC1=O)O2 (centres undefined) | 100 µg/mL (≈ 290 µM) | 
O=C1CCCC2=C1C(c1c[nH]c3ccccc13)c1cccc(O)c1O2 (centres undefined) | > 100 µg/mL | 
COc1ccc(Br)c2c1OC1=C(C(=O)CCC1)C2c1c[nH]c2ccccc12 (centres undefined) | > 100 µg/mL | 
COc1ccc(Br)c2c1OC1=C(C(=O)CC(C)(C)C1)C2n1nnc2ccccc21 (centres undefined) | > 100 µg/mL | 
CC1(C)CC(=O)C2=C(C1)Oc1ccc(Br)cc1C2n1nnc2ccccc21 (centres undefined) | > 100 µg/mL | 
CC1(C)CC(=O)C2=C(C1)Oc1c(O)cccc1C2n1nnc2ccccc21 (centres undefined) | > 100 µg/mL | 
O=C1CCCC2=C1C(n1nnc3ccccc31)c1cc(Cl)ccc1O2 (centres undefined) | > 100 µg/mL | 
O=C1CCCC2=C1C(n1nnc3ccccc31)c1cc(Br)ccc1O2 (centres undefined) | > 100 µg/mL | 
COc1ccc2c(c1)C(n1nnc3ccccc31)C1=C(CCCC1=O)O2 (centres undefined) | > 100 µg/mL | 
COc1ccc(Br)c2c1OC1=C(C(=O)CCC1)C2n1nnc2ccccc21 (centres undefined) | > 100 µg/mL | 
CN1C(=O)C(C2C3=C(CC(C)(C)CC3=O)Oc3ccccc32)C(=O)N(C)C1=O (centres undefined) | > 100 µg/mL | 
CN1C(=O)C(C2C3=C(CC(C)(C)CC3=O)Oc3ccc(Cl)cc32)C(=O)N(C)C1=O (centres undefined) | > 100 µg/mL | 
CN1C(=O)C(C2C3=C(CC(C)(C)CC3=O)Oc3ccc(Br)cc32)C(=O)N(C)C1=O (centres undefined) | > 100 µg/mL | 
COc1ccc2c(c1)C(C1C(=O)N(C)C(=O)N(C)C1=O)C1=C(CC(C)(C)CC1=O)O2 (centres undefined) | > 100 µg/mL | 
CN1C(=O)C(C2C3=C(CC(C)(C)CC3=O)Oc3ccc([N+](=O)[O-])cc32)C(=O)N(C)C1=O (centres undefined) | > 100 µg/mL | 
CN1C(=O)C(C2C3=C(CCCC3=O)Oc3ccc(Cl)cc32)C(=O)N(C)C1=O (centres undefined) | > 100 µg/mL | 
CN1C(=O)C(C2C3=C(CCCC3=O)Oc3ccc(Br)cc32)C(=O)N(C)C1=O (centres undefined) | > 100 µg/mL | 
CN1C(=O)C(C2C3=C(CCCC3=O)Oc3ccc([N+](=O)[O-])cc32)C(=O)N(C)C1=O (centres undefined) | > 100 µg/mL | 
COc1ccc2c(c1)C(C1=C(O)CCCC1=O)C1=C(CCCC1=O)O2 (centres undefined) | > 100 µg/mL | 
COC(=O)C1=C(C)Oc2c(cc(C(C)(C)C)cc2C(C)(C)C)[C@@H]1[C@H](C(C)=O)C(=O)OC | > 100 µg/mL | 
COC(=O)C1=C(C)Oc2ccc(Cl)cc2[C@@H]1[C@H](C(C)=O)C(=O)OC | > 100 µg/mL | 

Compound | MIC [1] | further results
COC(=O)C1=C(C)Oc2ccc(Br)cc2[C@@H]1[C@H](C(C)=O)C(=O)OC | > 100 µg/mL | 
COC(=O)C1=C(C)Oc2ccc(OC)cc2[C@@H]1[C@H](C(C)=O)C(=O)OC | > 100 µg/mL | 
COC(=O)C1=C(C)Oc2c(O)cccc2[C@@H]1[C@H](C(C)=O)C(=O)OC | > 100 µg/mL | 
C[n+]1cc2c(cn3c4ccccc4ccc23)c2ccccc21.[I-] | 1.5 µg/mL | MIC [3]: 1.5 µg/mL; MIC [2]: 6.2 µg/mL; IC50 (MRC5 [4]): 30 µg/mL
CN1Cc2c(cn3c2ccc2ccccc23)-c2ccccc21 | 0.7 µg/mL (≈ 2.46 µM) | MIC [3]: 1.5 µg/mL (≈ 5.27 µM); MIC [2]: 6.2 µg/mL (≈ 21.8 µM); IC50 (MRC5 [4]): 23.5 µg/mL (≈ 82.6 µM)
O=C(O)CC[N+](=O)[O-] | 50 µg/mL (≈ 420 µM) | MIC [2]: 12.5 µg/mL (≈ 105 µM)
O=C(c1ccccc1)c1cc2ccccc2oc1=O | 50 µg/mL (≈ 200 µM) | 
CC(=O)c1cc2cc(Br)ccc2oc1=O | > 100 µg/mL | 
CCC(N)C(=O)O (racemic) | > 100 µg/mL | 
C[C@@H]1[C@H](O)[C@@H](C)/C=C/C=C/C=C/C=C/C=C/C=C/C=C/[C@H](O[C@@H]2O[C@H](C)[C@@H](O)[C@H](N)[C@@H]2O)C[C@@H]2O[C@](O)(C[C@@H](O)C[C@@H](O)[C@H](O)CC[C@@H](O)C[C@@H](O)CC(=O)O[C@H]1C)C[C@H](O)[C@H]2C(=O)O [AMPHOTERICIN B] | > 100 µg/mL | 
O=C(OC[C@@H](O)[C@@H](O)COC(=O)/C(Cc1ccc(O)cc1)=N\O)/C(Cc1ccc(O)cc1)=N\O [ASPERGILLUSOL A] | > 100 µg/mL | 
COC(=O)[C@]1(Cc2ccc3c(c2)C[C@H](O)C(C)(C)O3)OC(=O)C(O)=C1c1ccc(O)cc1 [BUTYROLACTONE V] | > 100 µg/mL | 
Cc1cc(O)c2c(c1O)C(=O)c1cc(O)cc(O)c1C2=O [CATENARIN] | 100 µg/mL (≈ 349 µM) | 
COc1cccc2c1C(=O)c1c(O)c3c(c(O)c1C2=O)C[C@@](O)(C(=O)CO)C[C@@H]3O[C@H]1C[C@H](N)[C@H](O)[C@H](C)O1 [DOXORUBICIN] |  | Activity (MRC5 [5]): Non-toxic
O=C1C[C@H]2SS[C@@]34C[C@@H]1[C@@H]([C@H]2O)N3C(=O)[C@@]12C[C@H]3C(=O)C[C@@H](S1)[C@H](O)[C@H]3N2C4=O [EPICOCCIN A] | > 100 µg/mL | MIC [2]: > 100 µg/mL
O=c1cc(CO)occ1O [KOJIC ACID] | > 100 µg/mL | 
COc1cc(O)cc2c1C(=O)c1c(O)cc(C)cc1C2=O [QUESTIN] | 50 µg/mL (≈ 176 µM) | 
COC(=O)[C@@]12Oc3ccc(-c4ccc5c(c4O)C(O)C4=C(O)C[C@H](C)[C@@H](O)[C@]4(C(=O)OC)O5)c(O)c3C(=O)C1=C(O)C[C@H](C)[C@H]2O (some centres undefined) [SECALONIC ACID D] | > 100 µg/mL | 
NCCS(=O)(=O)O [TAURINE] | > 100 µg/mL | 
C/C=C/C1=CC=C/C(=C2\C(=O)CNC2=O)O1 [VERMELHOTIN] | 3.1 µg/mL (≈ 14.3 µM) | MIC [3]: 3.1 µg/mL (≈ 14.3 µM); MIC [2]: 6.2 µg/mL (≈ 28.5 µM); IC50 (MRC5 [4]): 6.97 µg/mL (≈ 32.1 µM)
